{
  "source": "patent US20150190369A1",
  "about": "“QUERCETIN-3-GLUCOSIDE AND USES THEREOF” (priority 2012, published 2015)",
  "key": {"LDLR mRNA": {"system": "LDLR mRNA", "assay": "Quantitative RT-PCR for LDLR mRNA in Huh7 cells", "format": "cell-based, human", "conditions": "Huh7, 24 h, 10% LPDS, 0 to 10 μM Q3G; maximum at 2 μM, relative to no Q3G", "protocol": "At passage, Huh7 cells were routinely seeded at sub-confluence (˜10^6 cells/10-cm dish) in Dulbecco's modified Eagle's medium (DMEM) containing 10% fetal bovine serum (FBS) or LPDS (for experiments) and 50 μg/ml gentamycin. They were incubated overnight at 37° C., in a humidified 5% CO2-95% air atmosphere. Cells were treated or not with Q3G at defined concentrations and for defined lengths of time. Media were collected and centrifuged at 200 g for 5 min to sediment suspended cells; supernatants were collected and supplemented with 0.33 volumes of a 3×-concentrated PIC. Cell monolayers were rinsed with ice-cold phosphate-buffered saline (PBS); they were overlaid with […] the RIPA lysis buffer (50 mM Tris-HCl, pH 8, 150 mM NaCl, 1% NP-40, 0.5% Na-deoxycholate and 0.1% SDS) supplemented with 1× PIC. After 20 min in an ice bath, the lysates were centrifuged at 14,000 g and 4° C. for 20 min, and supernatants were collected. Conditioned media and lysates were stored at −20° C. until analysis. […]\n(§1) Standard curves were established using varying amounts of purified and quantified cDNA amplicons of each mRNA. […]\nHuh7 cells, hepatocyte derived cellular carcinoma cells, were incubated for 24 h in medium containing 10% lipoprotein-depleted serum (LPDS) and 0 to 10 μM Q3G. The level of LDLR mRNA was measured by quantitative real-time RT-PCR; that of the LDLR protein by semi-quantitative immunoblotting. […]"}, "PCSK9 mRNA": {"system": "PCSK9 mRNA", "assay": "Quantitative RT-PCR for PCSK9 mRNA in Huh7 cells", "format": "cell-based, human", "conditions": "Huh7, 24 h, highest Q3G concentration tested (0 to 10 μM)", "protocol": "At passage, Huh7 cells were routinely seeded at sub-confluence (˜10^6 cells/10-cm dish) in Dulbecco's modified Eagle's medium (DMEM) containing 10% fetal bovine serum (FBS) or LPDS (for experiments) and 50 μg/ml gentamycin. They were incubated overnight at 37° C., in a humidified 5% CO2-95% air atmosphere. Cells were treated or not with Q3G at defined concentrations and for defined lengths of time. Media were collected and centrifuged at 200 g for 5 min to sediment suspended cells; supernatants were collected and supplemented with 0.33 volumes of a 3×-concentrated PIC. Cell monolayers were rinsed with ice-cold phosphate-buffered saline (PBS); they were overlaid with […] the RIPA lysis buffer (50 mM Tris-HCl, pH 8, 150 mM NaCl, 1% NP-40, 0.5% Na-deoxycholate and 0.1% SDS) supplemented with 1× PIC. After 20 min in an ice bath, the lysates were centrifuged at 14,000 g and 4° C. for 20 min, and supernatants were collected. Conditioned media and lysates were stored at −20° C. until analysis.\nTotal RNA was extracted using the Qiagen RNeasy extraction kit. It was reverse transcribed into cDNA using random hexameric primers and the Superscript II RNase H-Reverse Transcriptase. […]\nas §1"}, "PCSK9": {"system": "PCSK9", "assay": "ELISA for secreted PCSK9 in conditioned media of Huh7 cells", "format": "cell-based, human", "conditions": "Huh7, 24 h", "quoted_text": "Media were collected and PCSK9 levels therein were determined by ELISA.\nAt passage, Huh7 cells were routinely seeded at sub-confluence (˜10^6 cells/10-cm dish) in Dulbecco's modified Eagle's medium (DMEM) containing 10% fetal bovine serum (FBS) or LPDS (for experiments) and 50 μg/ml gentamycin. They were incubated overnight at 37° C., in a humidified 5% CO2-95% air atmosphere. Cells were treated or not with Q3G at defined concentrations and for defined lengths of time. Media were collected and centrifuged at 200 g for 5 min to sediment suspended cells; supernatants were collected and supplemented with 0.33 volumes of a 3×-concentrated PIC. Cell monolayers were rinsed with ice-cold phosphate-buffered saline (PBS); they were overlaid with 0.5 of the RIPA lysis buffer (50 mM Tris-HCl, pH 8, 150 mM NaCl, 1% NP-40, 0.5% Na-deoxycholate and 0.1% SDS) supplemented with 1× PIC. After 20 min in an ice bath, the lysates were centrifuged at 14,000 g and 4° C. for 20 min, and supernatants were collected. Conditioned media and lysates were stored at −20° C. until analysis.\nThe assays for PCSK9 and insulin were conducted as prescribed by kit manufacturers, using a Thermo Scientific plate reader. For example, PCSK9 levels in conditioned media were measured using the human PCSK9 ELISA kit from Circulex, as specified the manufacturer. The assay was a sandwich immunoassay using two antibodies (A and B) recognizing different PCSK9 epitopes. Briefly, aliquot of diluted media were overlaid on wells coated with anti-PCSK9 antibody A. After 1-h incubation, the wells were washed, overlaid with a solution of HRP-conjugated anti-PCSK9 antibody B, and incubated for 1 h. They were washed again, and overlaid with a solution of tetra-methylbenzidine as a chromogenic substrate for HRP. After 15 min, the reaction was stopped with ammonium sulfate and the absorbance of the reaction mixtures measured by spectrophotometry at 450 nm. All the steps were performed at room temperature. Standards consisted of recombinant human PCSK9."}, "SREBP-2": {"system": "SREBP-2", "assay": "Immunoblotting for SREBP-2-related proteins (proSREBP-2 proteolytic activation) in Huh7 cells", "format": "cell-based, human", "conditions": "Huh7, 24 h, 5 μM Q3G, normalized for β-actin", "protocol": "FIGS. 9A and 9B are graphs illustrating the proSREBPs-2 mRNA and SREBP-2-related protein levels for cells exposed to Q3G. Cells were incubated for 24 h in medium 5 μM Q3G. FIG. 9A illustrates the results for quantitative RT-PCR for proSREBPs-2 mRNA levels. Values are the means of triplicate experiments±SEM. FIG. 9B illustrates the results for semi-quantitative immunoblotting for cellular SREBP-2-related protein. […]\nAt passage, Huh7 cells were routinely seeded at sub-confluence (˜10^6 cells/10-cm dish) in Dulbecco's modified Eagle's medium (DMEM) containing 10% fetal bovine serum (FBS) or LPDS (for experiments) and 50 μg/ml gentamycin. They were incubated overnight at 37° C., in a humidified 5% CO2-95% air atmosphere. Cells were treated or not with Q3G at defined concentrations and for defined lengths of time. Media were collected and centrifuged at 200 g for 5 min to sediment suspended cells; supernatants were collected and supplemented with 0.33 volumes of a 3×-concentrated PIC. […]\n(§2) Cell lysates were fractionated by SDS-PAGE and electrophoretically transferred onto a polyvinylidene fluoride membrane. […] The signal was captured on X-ray film and immunoreactive bands analyzed by densitometry on a Syngene's ChemiGenius^2XE Bio Imaging System (Cambridge, Mass.) within the dynamic range of the instrument. […]"}, "LDLR": {"system": "LDLR", "assay": "Immunoblotting for LDLR in MIN6 β-cells", "format": "cell-based, mouse", "protocol": "(§3) The corresponding photographs of the immunoblotting results are also shown. MIN6 cells were incubated for 24 h in the presence of 16 μM Q3G. Cell lysates were analyzed by semi-quantitative immunoblotting using different antibodies successively.\n(§4) Mouse insulinoma MIN6 cells were cultured in a 5% CO2-95% air atmosphere at 37° C. in DMEM medium containing 10% heat-inactivated fetal bovine serum, 1 mM Na-pyruvate, 2 mM L-glutamine, 25 mM D-glucose, and 28 μM β-mercaptoethanol. Q3G at a specific final concentration was supplemented to the culture medium and incubation was conducted for a selected length of time. Media were collected, spun at 600 g to sediment suspended cells, supplemented with 0.5 volumes of 3×RIPA-PIC (1×: 50 mM Tris-HCl, pH 8, 150 mM NaCl, 1% NP-40, 0.5% Na-deoxycholate and 0.1% SDS and PIC). Cells were lysed in 1×RIPA-PIC for immuno-blotting, or in RNA extraction buffer for qRT-PCR.\nas §2"}, "ABCA1": {"system": "ABCA1", "assay": "Immunoblotting for ABCA1 in MIN6 β-cells", "format": "cell-based, mouse", "conditions": "MIN6, Q3G-treated", "protocol": "as §3, §4, §2"}},
  "data": [
    {"smiles": "O=c1c(O[C@@H]2O[C@H](CO)[C@@H](O)[C@H](O)[C@H]2O)c(-c2ccc(O)c(O)c2)oc2cc(O)cc(O)c12", "note": "[Q3G, quercetin-3-O-β-D-glucoside]", "values": [
      {"measurement": "increase of intracellular content of LDLR mRNA (maximum)", "setting": "LDLR mRNA", "result": 2, "unit": "×"},
      {"measurement": "decrease of PCSK9 mRNA levels", "setting": "PCSK9 mRNA", "result": "one-third"},
      {"measurement": "level of PCSK9 in spent media", "setting": "PCSK9; co-treatment 5 μM Q3G with simvastatin 0.2 and 1 μM, versus simvastatin alone", "result": "reducing"},
      {"measurement": "decrease of PCSK9 in conditioned media", "setting": "PCSK9; highest Q3G concentration tested (0 to 10 μM)", "result": 35, "unit": "%"},
      {"measurement": "increase of ratio of 65-kDa nuclear SREBP-2 over its 148-kDa ER precursor", "setting": "SREBP-2", "result": "up to 4 fold"},
      {"measurement": "amount of cell-surface LDL-receptor versus untreated MIN6 β-cells", "setting": "LDLR; MIN6, 24 h, 16 μM Q3G", "result": "approximately 1.4 times"},
      {"measurement": "relative amount of LDLR protein compared with mRNA", "setting": "LDLR; MIN6, Q3G-treated", "result": "in concordance with the relative amounts of mRNA"},
      {"measurement": "relative amount of ABCA1 protein compared with mRNA", "setting": "ABCA1", "result": "in concordance with the relative amounts of mRNA"}
    ]}
  ]
}
